# Earlier results as cited in US20040072789A1, “Veterinary composition for the topical treatment of traumatized or inflamed skin” (priority 2000, published 2004).
# System: fungal infections of the skin
smiles,measurement,value
COC1=CC(=O)C[C@@H](C)[C@]12Oc1c(Cl)c(OC)cc(OC)c1C2=O [griseofulvin],effect of topical administration on fungal infections of the skin,very limited effect
